Data: patent US20180339016A1 (priority 2015, published 2018)
Several values for one entry are separate records, joined by “and”; a condition that tells them apart may be missing. Equal entries are not always repeated. Where two headings read alike, the source gives them in different places.

Key:
[1] = system: Staphylococcus aureus (ATCC 29213); assay: MIC of peptide against S. aureus; format: cell-based; settings: peptide alone
Protocol: (§1) The N-terminus of the peptides were acetylated and the C-terminus was amidated. The kinked structure can rapidly reduce the alpha-helical content, thereby greatly reducing the toxicity of the peptide against host cells. In addition, because of the potential to show specificity for the Gram-negative bacterial membrane, Pro-mutants were prepared by site-directed mutagenesis. Using the prepared peptides, their MIC for the Gram-negative bacterium E. coli and the Gram-positive bacterium S. aureus and their hemolytic activity for host cells were examined (Table 1).

MDA MB231 cells = assay: FACS penetration of eukaryotic cells; format: cell-based; settings: 5 microM
Source text: (§2) […]. […] […].

[2] = system: Escherichia coli (ATCC 25922); settings: peptide alone; peptide concentration required to inhibit growth by 20% (so in the source)
Protocol: as §1
(§3) To measure the synergy between the membrane-activating peptides and the repositioning drug, a 10× compound was prepared, and then serially diluted ⅔-fold with distilled water. An MH broth (900 μl) was added to and mixed with the 10× compound (100 μl), and then 200 μL of the mixture was taken and added to a 96-well plate. E. coli cultured for one day was adjusted to 0.5 MCF using MCFarland, and diluted 10-fold, and then 10 μl of the dilution was added to each well of the plate (5×10^5 CFU/mL). After addition of the bacterial cells, plate was incubated at 37° C. for 18 hours, and then the OD value at UV-Vis (600 nm) was measured. Cell viability (%)=(OD600 of sample−OD600 of negative control)/(OD600 of positive control−OD600 of negative control)×100.

E. coli ATCC 25922 [3] = settings: for MIC (μM) against E. coli ATCC 25922, Peptide alone: bacterial growth <10% of control
E. coli [4] = assay: FACS of TAMRA-labeled peptides entering Gram-negative bacteria; format: cell-based
Gram-positive bacteria [5] = assay: Entry of peptide into Gram-positive bacteria; format: cell-based; settings: data not shown
Source text: as §2

E. coli [6] = assay: NPN fluorescence, penetration into outer membrane; format: cell-based; settings: FIG. 5
Protocol: Penetration into the microbial outer membrane was measured by the fluorescence intensity of NPN-treated E. coli (λex=355 nm, λem=405 nm). An E. coli suspension (8×10^7 cells/mL) was centrifuged at 13000 rpm at 25° C. for 10 minutes, and suspended in 5 mM HEPES buffer (pH 7.2). NPN was added to the E. coli suspension to a final NPN concentration of 5 μM. The fluorescence intensity of the E. coli suspension was measured using the FL-55 fluorometer. The peptide together with 5 μM NPN was added to the E. coli suspension.

E. coli [7] = assay: SYTOX Green membrane penetrability by FACS; format: cell-based; settings: FIG. 6
Protocol: In the second experiment, whether the peptides would have the ability to disrupt both the outer wall and inner wall of bacteria was examined. To this end, the fluorescent dye Sytox Green capable of specifically staining DNA was used, and penetrability into the microbial membrane was evaluated from the average fluorescence intensity of E. coli treated with SYTOX Green. An E. coli suspension (2×10^8 cells/mL) was incubated with the three peptides in the presence of SYTOX Green (2.5 μM) for 10 minutes, respectively. Penetrability was quantified by a (fluorescence activated cell sorter (FACS). The average fluorescence intensity of 1×10^4 gate cells was measured. Melittin (control) is a pore-forming peptide that disrupts the microbial cell membrane.

E. coli ATCC 25922 [8] = assay: Antibiotic interaction assay (Wimley), 2/3 broth microdilution: MIC alone, MIC of combination, FICI; format: cell-based; settings: for FICI of peptide with colistin: labelled peptide + colistin; for FICI of peptide with linezolid: labelled peptide + linezolid; for MIC when the three compounds were used alone: Example 7; for MIC (μM) against E. coli ATCC, combination of two compounds / MIC (μM) against E. coli ATCC, combination of 3 compounds / concentration killing E. coli in combination KL-L9P/colistin/linezolid: concentration of labelled component
Protocol: Synergy was evaluated by an antibiotic interaction assay (Wimley, 2015) Using the method of Wimley (BBA, 2015, v. 1848(1), pp. 8-15), synergy between the membrane-activating peptide and an antibiotic was measured by an FICI value (FIG. 17). […] Thus, to accurately examine synergy, a ⅔ dilution method which observes MIC at denser concentration intervals is advantageous over a ½ dilution method in statistical terms. […] In the same manner, the MIC of an antibiotic or repositioning drug (second line) is measured. In the third line, the two compounds are mixed after putting half amount each, and the MIC thereof is measured.
A broth microdilution technique (⅔ dilution) was used together with an MH broth. E. coli treated with an antibiotic and the peptide was incubated in a 37° C. incubator for 18 hours.
as §3

Gram-positive bacteria [9] = settings: previously examined peptide; cited from earlier work
E. coli NDm-1 = assay: Confocal microscopy of TAMRA-conjugated peptide; format: cell-based; settings: 2.5 μM peptide, 30 minutes, FIG. 8
Protocol: E. coli NDm-1 was diluted when it reached OD600=0.5. The microorganism was treated with 2.5 μM of the peptide in a 37° C. incubator for 30 minutes. LK-L12P was used as a positive control.

[10] = KL-L9P + colistin + (S)-ibuprofen
[11] = KL-L9P + colistin + cloxacillin
[12] = KL-L9P + colistin + simvastatin
[13] = Tables 19-23, read-out: MIC (μM) against E. coli ATCC, 1 compound alone

Compound | MIC [μM] Against S. aureus [1] | MIC [μM] Against E. coli [2] | MIC (μM) against E. coli ATCC 25922, Peptide alone (E. coli ATCC 25922 [3]; Table 4) | NPN fluorescence: touching/loosening the outer membrane (E. coli [6]) | SYTOX Green DNA staining: ability to degrade or penetrate the inner wall (E. coli [7]) | FICI of peptide with colistin (E. coli ATCC 25922 [8]) | FICI of peptide with linezolid (E. coli ATCC 25922 [8]) | lowering of MIC in combination KL-L9P/colistin/linezolid versus alone (E. coli ATCC 25922 [8]) | MIC when the three compounds were used alone (E. coli ATCC 25922 [8]) | MIC (μM) against E. coli ATCC, combination of 3 compounds (E. coli ATCC 25922 [8]; [10]) | MIC (μM) against E. coli ATCC, combination of 3 compounds (E. coli ATCC 25922 [8]; [11]) | MIC (μM) against E. coli ATCC, combination of 3 compounds (E. coli ATCC 25922 [8]; KL-L9P + colistin + curcumin) | MIC (μM) against E. coli ATCC, combination of 3 compounds (E. coli ATCC 25922 [8]; KL-L9P + colistin + linezolid) | MIC (μM) against E. coli ATCC, combination of 3 compounds (E. coli ATCC 25922 [8]; [12]) | MIC (μM) against E. coli ATCC, combination of two compounds (E. coli ATCC 25922 [8]; KL-L9P + colistin) | MIC (E. coli ATCC 25922 [8]; [13]) | concentration killing E. coli in combination KL-L9P/colistin/linezolid (E. coli ATCC 25922 [8]) | confocal image: membrane leakage / distribution of TAMRA-labeled peptide (E. coli NDm-1) | other results
LKKLLKLPKKLLKL [LK-L8P] | >40 µM | 10 µM | 3 µM | – | – | – | – | – | – | – | – | – | – | – | – | – | – | – | penetration of eukaryotic cells (MDA MB231 cells): did not penetrate eukaryotic cells; Fractional Inhibitory Concentration Index (FICI), Colistin & 1 μM peptide (E. coli ATCC 25922 [3]; Table 4): 0.83, Synergism; extent to which the mutated peptides entered Gram-negative bacteria (order) (E. coli [4]; TAMRA-labeled, FIG. 1): P>>N=D>Q=E; portion of the peptide that entered Gram-negative bacteria (E. coli [4]; peptide about 2.5 microM): about 60%; entry into Gram-positive bacteria (Gram-positive bacteria [5]): did not enter Gram-positive bacteria
CC[C@H](C)[C@H](NC(=O)CN)C(=O)NCC(=O)N[C@@H](C)C(=O)N[C@H](C(=O)N[C@@H](CC(C)C)C(=O)N[C@@H](CCCCN)C(=O)N[C@H](C(=O)N[C@@H](CC(C)C)C(=O)N[C@H](C(=O)N[C@H](C(=O)NCC(=O)N[C@@H](CC(C)C)C(=O)N1CCC[C@H]1C(=O)N[C@@H](C)C(=O)N[C@@H](CC(C)C)C(=O)N[C@H](C(=O)N[C@@H](CO)C(=O)N[C@@H](Cc1c[nH]c2ccccc12)C(=O)N[C@H](C(=O)N[C@@H](CCCCN)C(=O)N[C@@H](CCCNC(=N)N)C(=O)N[C@@H](CCCCN)C(=O)N[C@@H](CCCNC(=N)N)C(=O)N[C@@H](CCC(N)=O)C(=O)N[C@@H](CCC(N)=O)C(N)=O)[C@@H](C)CC)[C@@H](C)CC)[C@@H](C)O)[C@@H](C)O)C(C)C)C(C)C [Melittin] | – | – | – | high ability to increase NPN fluorescence | have this ability | – | – | – | – | – | – | – | – | – | – | – | – | – | –
RAGLQFPVGRVHRLLRK [buforin 5-20] | – | 20 µM | – | – | – | 0.5 | 0.7 | – | – | – | – | – | – | – | – | – | – | – | activity against Gram-positive bacteria (Gram-positive bacteria [9]): no activity against Gram-positive bacteria
KLLKLLKKPLKLLK [KL-L9P] | >40 µM | 20 µM and 12 µM | 15 µM | better effect of loosening the outer membrane than colistin | did not stain DNA | 0.26 | 0.40 | 12 fold | 13 µM | 1.1 µM | 1.6 µM | 1.1 µM | 1.1 µM | 0.79 µM | 2.4 µM | 15 µM | 1 µM | distributed around the thin peri-cytoplasmic membrane | FICI of peptide with resveratrol (E. coli ATCC 25922 [8]; FIG. 10): 0.2; MIC (μM) against E. coli ATCC, combination of two compounds (E. coli ATCC 25922 [8]; KL-L9P + (S)-ibuprofen): 2.0 µM; MIC (μM) against E. coli ATCC, combination of two compounds (E. coli ATCC 25922 [8]; KL-L9P + cloxacillin): 3.0 µM; MIC (μM) against E. coli ATCC, combination of two compounds (E. coli ATCC 25922 [8]; KL-L9P + curcumin): 1.9 µM; MIC (μM) against E. coli ATCC, combination of two compounds (E. coli ATCC 25922 [8]; KL-L9P + linezolid): 2.6 µM; MIC (μM) against E. coli ATCC, combination of two compounds (E. coli ATCC 25922 [8]; KL-L9P + simvastatin): 1.3 µM; FICI of peptide with colistin and linezolid (E. coli ATCC 25922 [8]; labelled peptide + colistin + linezolid): 0.28; FICI of peptide with simvastatin (E. coli ATCC 25922 [8]; labelled peptide + simvastatin): 0.18; MIC of combination (μM): peptide (E. coli ATCC 25922 [8]; peptide concentration in combination with colistin): 2.6 µM; FICI Against E. coli, Colistin & 1/2 MIC peptide (E. coli ATCC 25922 [3]; Table 13, Lys-Ala scanning library): 0.58; FICI Against E. coli, Colistin & 1/2 MIC peptide (E. coli ATCC 25922 [3]; Table 15, Leu-Ala scanning): 0.74; FICI Against E. coli, Colistin & 1/4 MIC peptide (E. coli ATCC 25922 [3]; Table 15, Leu-Ala scanning): 0.55
LKKLLKLLKKLPKL [LK-L12P] | 10 µM | 2.5 µM | – | – | – | – | – | – | – | – | – | – | – | – | – | – | – | strongly induced leakage from the inner membrane and the outer membrane | –
colistin | – | – | – | had the property of touching the outer membrane and entering the outer membrane | easily stained DNA | – | – | 16 fold | 0.8 µM | 0.08 µM | 0.08 µM | 0.08 µM | 0.06 µM | 0.06 µM | 0.17 µM | 1 µM | 0.05 µM | – | MIC (μM) against E. coli ATCC, combination of two compounds (E. coli ATCC 25922 [8]; colistin + (S)-ibuprofen): 0.55 µM; MIC (μM) against E. coli ATCC, combination of two compounds (E. coli ATCC 25922 [8]; colistin + cloxacillin): 0.63 µM; MIC (μM) against E. coli ATCC, combination of two compounds (E. coli ATCC 25922 [8]; colistin + curcumin): 0.30 µM; MIC (μM) against E. coli ATCC, combination of two compounds (E. coli ATCC 25922 [8]; colistin + linezolid): 0.60 µM; MIC (μM) against E. coli ATCC, combination of two compounds (E. coli ATCC 25922 [8]; colistin + simvastatin): 0.25 µM; MIC of combination (μM): KL-L9P (E. coli ATCC 25922 [8]; concentration of KL-L9P in combination with labelled drug): 2.40 µM; MIC of combination (μM): antibiotic (E. coli ATCC 25922 [8]; concentration of labelled drug in combination with KL-L9P): 0.17 µM; MIC (E. coli ATCC 25922 [8]; drug alone, <20% growth of positive control, read-out: MIC of antibiotic): 1.63 µM; FICI of drug with KL-L9P (E. coli ATCC 25922 [8]; labelled drug + KL-L9P): 0.26; FICIKL-L9P (E. coli ATCC 25922 [8]; labelled drug + KL-L9P): 0.16; FICIantibiotic (E. coli ATCC 25922 [8]; labelled drug + KL-L9P): 0.10; MIC (μM) against E. coli ATCC 25922, Colistin alone (E. coli ATCC 25922 [3]; Table 4): 1.25 µM
